# Laboratory results published in US11771694B2, “Arylamide compounds for treatment and prevention of viral infections” (priority 2020, dated 2023).
# Where “and” joins values, the source holds several entries; their conditions need not be identical. Equal entries are not always repeated. Where two headings read alike, the source gives them in different places.
# Key:
# [1] = system: SARS-CoV-2 (Washington strain 2019-nCoV/USA-WA1/2020); assay: microbe, parasite or virus in culture; type: cell-based; conditions: Severe acute respiratory syndrome coronavirus 2, Vero
# [2] = system: SARS-CoV-2 spike pseudotyped luciferase virus; type: cell-based
# HCoV-OC43 = assay: Virus yield reduction assay, HCoV-OC43 on RD cells; type: cell-based; conditions: Betacoronavirus 1, 48 hours post-infection
# Method: (§1) For these assays, brilacidin was included during viruses infection and post infection stages. The EC50 values were calculated from best-fit dose response curves with variable slope in Prism 8.
# HCoV-NL63 = assay: Virus yield reduction assay, HCoV-NL63 on Vero cells; type: cell-based; conditions: Human coronavirus NL63, 48 hours post-infection
# Method: as §1
# Haemophilus influenzae = assay: Broth microdilution MIC; type: cell-based; conditions: 2-3 isolates/organism, read-out: MIC
# Citrobacter fruendi = assay: Broth microdilution MIC; type: cell-based; conditions: Citrobacter fruendi; 2-3 isolates/organism; read-out: MIC
# Klebsiella oxtoca = assay: Broth microdilution MIC; type: cell-based; conditions: Klebsiella oxtoca; 2-3 isolates/organism; read-out: MIC
# Strept. agalactiae = assay: Broth microdilution MIC; type: cell-based; conditions: Streptococcus agalactiae; Strept. agalactiae; 2-3 isolates/organism; read-out: MIC
# HCoV-229E = assay: Virus yield reduction assay, HCoV-229E on Huh-7 cells; type: cell-based; conditions: Human coronavirus 229E, 48 hours post-infection
# Method: as §1
# S. aureus = assay: microbe, parasite or virus in culture; type: cell-based; conditions: Staphylococcus aureus; value marked * = MIC90
# [3] = system: Venezuelan equine encephalitis virus (VEEV) TC83; type: cell-based; conditions: U87MG cells; 10 μM; virus treated only; 24 hpi
# human PDE3A = human PDE3A (Homo sapiens, UniProt Q14432); assay: PDE-Glo phosphodiesterase assay, PDE3A; type: biochemical; conditions: 1 μM cAMP substrate; read-out: IC50, inhibition of human PDE3A
# human PDE4B2 = human PDE4B2 (Homo sapiens, UniProt Q07343); assay: PDE-Glo phosphodiesterase assay, PDE4B2; conditions: IC50, inhibition of human PDE4B2, 1 μM cAMP substrate
# SARS-CoV-2 [4] = type: cell-based; conditions: Calu-3; MOI 0.05; 24 hpi
# Strept. pyogenes = assay: Broth microdilution MIC; type: cell-based; conditions: Streptococcus pyogenes; Strept. pyogenes; 2-3 isolates/organism; read-out: MIC
# Strept. viridians = assay: Broth microdilution MIC; type: cell-based; conditions: Strept. viridians; 2-3 isolates/organism; read-out: MIC
# LPS-induced IL-8 release = assay: LPS-induced IL-8 release, THP-1 cells, ELISA; type: cell-based; conditions: Homo sapiens, 8-hour exposure, read-out: IC50, inhibition of LPS-induced IL-8 release
# [5] = system: Ulcerative Proctosigmoiditis/Ulcerative Proctitis (UP/UPS); assay: Phase 2 study CTIX-BRI-206 in Ulcerative Proctosigmoiditis/Ulcerative Proctitis; type: in vivo, human
# Excerpt: Inflammatory biomarkers IL-1β and IL-6 were reduced in colonic tissue biopsies collected at Week 6 (Day 42) compared to those biopsies collected at baseline (FIG. 20, Panel B).
# [6] = system: Acute Bacterial Skin and Skin Structure Infections (ABSSSI); assay: Phase 2 trials in ABSSSI; type: in vivo, human; conditions: single dose and 3-day regimen, IV infusion; Phase 2b CTIX-BRI-204
# Excerpt: Further details on clinical success rates by baseline pathogen for the ABSSSI Phase 2b study are presented in FIG. 26 (blank cells=no participants presented with the specified baseline pathogen. EOT: End of Treatment. STFU: Short-Term Follow-Up).
# Entero. faecalis = assay: Broth microdilution MIC; type: cell-based; conditions: Enterococcus faecalis; Entero. faecalis; 2-3 isolates/organism; read-out: MIC
# in vitro = conditions: African green monkey
# Staph. aureus (MRSA) = assay: Broth microdilution MIC; type: cell-based; conditions: Staphylococcus aureus; Staph. aureus (MRSA); 2-3 isolates/organism; read-out: MIC
# Staph. epidermidis = assay: Broth microdilution MIC; type: cell-based; conditions: Staphylococcus epidermidis; Staph. epidermidis; 2-3 isolates/organism; read-out: MIC
# Providencia stuartii = assay: Broth microdilution MIC; type: cell-based; conditions: 2-3 isolates/organism, read-out: MIC
# [7] = system: LPS-induced CINC-3 release; assay: LPS-induced CINC-3 release, NR8383 cells, ELISA; type: cell-based; conditions: Rattus norvegicus, 8-hour exposure, read-out: IC50, inhibition of LPS-induced CINC-3 release
# SARS-CoV-2 [8] = assay: microbe, parasite or virus in culture; type: cell-based
# [9] = system: luciferase-expressing pseudotyped virus (rVSV) containing the SARS-CoV-2 spike protein; type: cell-based
# Klebsiella pneumoniae = assay: Broth microdilution MIC; type: cell-based; conditions: 2-3 isolates/organism, read-out: MIC
# LPS-induced IL-6 release = assay: LPS-induced IL-6 release, NR8383 cells, ELISA; type: cell-based; conditions: Rattus norvegicus, 8-hour exposure, read-out: IC50, inhibition of LPS-induced IL-6 release
# [10] = system: SARS-CoV-2 (Washington strain 2019-nCoV/USA-WA1/2020); conditions: Vero; direct assay; 10 μM; 24 hpi
# Serratia marcescens = assay: Broth microdilution MIC; type: cell-based; conditions: 2-3 isolates/organism, read-out: MIC
# [11] = Severe acute respiratory syndrome coronavirus 2, Calu-3
# Chain of human PDE3A (Q14432 whole entry): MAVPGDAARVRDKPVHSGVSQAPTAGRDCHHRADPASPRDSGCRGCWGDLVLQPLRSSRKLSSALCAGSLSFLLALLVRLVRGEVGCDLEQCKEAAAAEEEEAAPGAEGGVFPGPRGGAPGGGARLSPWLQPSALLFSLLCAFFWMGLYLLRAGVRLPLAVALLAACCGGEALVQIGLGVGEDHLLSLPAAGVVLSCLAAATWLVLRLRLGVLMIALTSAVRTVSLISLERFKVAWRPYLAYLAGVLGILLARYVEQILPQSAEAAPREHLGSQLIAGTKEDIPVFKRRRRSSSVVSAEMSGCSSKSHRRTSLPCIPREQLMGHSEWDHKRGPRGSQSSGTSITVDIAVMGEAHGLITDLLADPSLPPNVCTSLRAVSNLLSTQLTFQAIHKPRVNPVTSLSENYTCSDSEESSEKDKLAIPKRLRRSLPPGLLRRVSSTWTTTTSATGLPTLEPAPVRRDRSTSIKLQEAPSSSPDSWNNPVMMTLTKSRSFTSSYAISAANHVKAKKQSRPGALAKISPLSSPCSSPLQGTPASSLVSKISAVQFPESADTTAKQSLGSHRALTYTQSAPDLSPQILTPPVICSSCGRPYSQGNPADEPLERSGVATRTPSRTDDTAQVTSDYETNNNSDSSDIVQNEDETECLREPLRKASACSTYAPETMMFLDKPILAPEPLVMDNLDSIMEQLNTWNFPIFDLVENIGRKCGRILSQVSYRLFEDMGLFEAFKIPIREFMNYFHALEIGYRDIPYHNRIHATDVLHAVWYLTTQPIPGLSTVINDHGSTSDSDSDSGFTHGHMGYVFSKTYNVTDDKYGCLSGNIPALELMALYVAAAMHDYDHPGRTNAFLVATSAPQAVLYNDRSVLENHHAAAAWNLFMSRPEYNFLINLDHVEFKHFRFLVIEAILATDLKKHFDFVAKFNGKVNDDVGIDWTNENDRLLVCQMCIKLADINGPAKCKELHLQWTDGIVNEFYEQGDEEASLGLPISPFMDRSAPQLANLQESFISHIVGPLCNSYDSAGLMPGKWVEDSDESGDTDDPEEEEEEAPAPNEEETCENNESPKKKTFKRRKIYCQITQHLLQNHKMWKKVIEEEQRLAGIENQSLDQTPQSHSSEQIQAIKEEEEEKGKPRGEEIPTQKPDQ
# Chain of human PDE4B2 (Q07343 1-564 isoform Q07343-2): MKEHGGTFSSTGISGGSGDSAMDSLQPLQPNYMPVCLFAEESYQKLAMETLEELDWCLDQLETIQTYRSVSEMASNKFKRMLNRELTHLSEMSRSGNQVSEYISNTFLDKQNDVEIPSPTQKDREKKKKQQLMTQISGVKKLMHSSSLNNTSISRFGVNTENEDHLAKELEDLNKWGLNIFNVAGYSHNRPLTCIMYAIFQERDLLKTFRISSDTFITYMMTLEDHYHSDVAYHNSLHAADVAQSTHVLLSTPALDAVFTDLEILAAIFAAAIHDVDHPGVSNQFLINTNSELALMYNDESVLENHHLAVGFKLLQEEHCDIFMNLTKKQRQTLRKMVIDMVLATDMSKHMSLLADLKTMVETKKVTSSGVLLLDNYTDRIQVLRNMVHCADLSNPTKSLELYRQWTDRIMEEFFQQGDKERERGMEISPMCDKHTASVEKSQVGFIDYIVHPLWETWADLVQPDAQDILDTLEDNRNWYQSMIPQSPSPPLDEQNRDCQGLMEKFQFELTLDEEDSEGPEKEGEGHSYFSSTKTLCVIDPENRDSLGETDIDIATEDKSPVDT
smiles,measurement,setting,value
N=C(N)NCCCCC(=O)Nc1cc(C(F)(F)F)cc(NC(=O)c2cc(C(=O)Nc3cc(C(F)(F)F)cc(NC(=O)CCCCNC(=N)N)c3OC3CCNC3)ncn2)c1OC1CCNC1 (centres unmarked) [brilacidin],inhibition at 10 µM,[1]; read-out: inhibition of SARS-CoV-2 (plaque assay),72%
same,inhibition at 10 µM,[1]; read-out: inhibition of infectious viral titer,53%
same,inhibition (luciferase activity) vs vehicle control,[2]; 0.1 μg/ml,29%
same,inhibition (luciferase activity) vs vehicle control,[2]; 100 μg/ml,85%
same,EC50,HCoV-OC43,4810 ± 950 nM
same,EC50,HCoV-NL63,2450 ± 52 nM
same,MIC,Haemophilus influenzae,4 to 8 µg/mL
same,MIC,Citrobacter fruendi,2 to 4 µg/mL
same,MIC,Klebsiella oxtoca,2 to 8 µg/mL
same,MIC,Strept. agalactiae,2 µg/mL
same,EC50,HCoV-229E,1950 ± 67 nM
same,MIC90,S. aureus,1 µg/mL
same,infectious viral titer compared to the DMSO-control,[3],statistically significant reduction
same,IC50,human PDE3A,~1800 nM and 1800 nM
same,IC50,human PDE4B2,~3000 nM and 3000 nM
same,"inhibition of infectious titer, each drug alone",SARS-CoV-2 [4],up to 90%
same,MIC,Strept. pyogenes,1 to 4 µg/mL
same,MIC,Strept. viridians,2 to 8 µg/mL
same,IC50,LPS-induced IL-8 release,10800 nM
same,inflammatory biomarkers IL-1β and IL-6 in colonic tissue biopsies,[5]; Week 6 (Day 42) compared to baseline,reduced
same,"clinical remission (with Endoscopic response), subjects","[5]; each cohort (50 mg, 100 mg, 200 mg daily retention enema), after 6 weeks",> 50%
same,efficacy (early clinical response),[6],comparable to that a 7-day regimen of daptomycin
same,MIC,Entero. faecalis,1 µg/mL
same,CC50,in vitro,79500 ± 2420 nM
same,MIC,Staph. aureus (MRSA),0.5 to 1 µg/mL
same,MIC,Staph. epidermidis,0.25 to 0.5 µg/mL
same,MIC,Providencia stuartii,16 to 64 µg/mL
same,IC50,[7],425 nM
same,reduction of infectious viral titer,SARS-CoV-2 [8]; 10 µM,95%
same,reduction of infectious viral titer,SARS-CoV-2 [8]; 20 µM,97%
same,Selectivity Index (CC50/IC50),SARS-CoV-2 [8]; Calu-3,426
same,inhibition exerted at the MOIs of 0.1 and 0.05,"SARS-CoV-2 [8]; Calu-3, 10 μM",comparable to each other
same,inhibition of virus at the lower MOIs,"SARS-CoV-2 [8]; Calu-3, 10 μM, MOIs 0.01 and 0.001",not showing statistical significance
same,"infectious virus titer, treatment of virus alone (E, entry)","SARS-CoV-2 [8]; Calu-3, inoculum incubated with 5, 10 or 20 μM for 1 hour, no pre- or post-treatment of cells, Washington and Italy strains",marked reductions of virus titer
same,IC50,SARS-CoV-2 [8]; [11],565 nM
same,IC90,SARS-CoV-2 [8]; [11],2630 nM
same,inhibition at 20 µM,"SARS-CoV-2 [8]; Severe acute respiratory syndrome coronavirus 2, Calu-3, read-out: inhibition of infectious viral titer",61%
same,inhibition of pseudovirus (rVSV) attachment and entry,[9],inhibited the pseudovirus at both concentrations tested in a comparable manner
same,MIC,Klebsiella pneumoniae,1 to 2 µg/mL
same,IC50,LPS-induced IL-6 release,274 nM
same,decrease in the viral genomic copies,[10],29%
same,toxicity in Calu-3 cells,"Calu-3 cells; 10 and 20 μM, 24 hours",nontoxic
same,CC10 (90% viability),"Calu-3 cells; Calu-3, 24 hpt, Hill model fit",26800 nM
same,MIC,Serratia marcescens,32 µg/mL
